Experimental data taken from the NIST ThermoML archive (doi:10.1021/acs.jced.7b00221).
Numbers after ± are expanded uncertainties.

Assay: xn = mol fraction of the nth substance listed
Conditions: 100 kPa, Liquid; for viscosity: Cone and plate viscometry; for mass density: Vibrating tube method

CCCCCCn1cc[n+](C)c1C.O=S(=O)([N-]S(=O)(=O)C(F)(F)F)C(F)(F)F + CCCCCCCCCCCCCC[P+](CCCCCC)(CCCCCC)CCCCCC.O=S(=O)([N-]S(=O)(=O)C(F)(F)F)C(F)(F)F
viscosity [mPa·s]
Conditions	278.15 K	283.15 K	288.15 K	293.15 K	298.15 K	303.15 K	308.15 K	313.15 K	318.15 K	323.15 K
x2 = 0.2	707 ± 92	483 ± 62	336 ± 42	242 ± 30	179 ± 22	136 ± 17	106 ± 13	84 ± 10	68 ± 8	55 ± 7
x2 = 0.4	932 ± 120	634 ± 82	442 ± 56	317 ± 40	234 ± 29	177 ± 22	137 ± 17	107 ± 13	86 ± 10	71 ± 9
x2 = 0.596	1000 ± 130	683 ± 89	477 ± 61	342 ± 43	252 ± 31	190 ± 23	146 ± 18	115 ± 14	92 ± 11	75 ± 9
x2 = 0.749	1015 ± 140	698 ± 91	490 ± 63	353 ± 45	261 ± 33	196 ± 24	151 ± 18	119 ± 14	95 ± 12	77 ± 9
x2 = 0.898	1130 ± 150	786 ± 100	555 ± 72	400 ± 51	297 ± 37	224 ± 28	173 ± 21	135 ± 16	108 ± 13	80 ± 10

CC[P+](CC)(CC)COCCOC.O=S(=O)([N-]S(=O)(=O)C(F)(F)F)C(F)(F)F + CCCCCCCCCC[P+](CC)(CC)CC.O=[N+]([O-])c1cn[n-]c1
x2 = 0
Conditions	viscosity [mPa·s]
278.15 K	84 ± 10
283.15 K	65 ± 8
288.15 K	51 ± 6

CCCCCC[n+]1ccn(C)c1.O=S(=O)([N-]S(=O)(=O)C(F)(F)F)C(F)(F)F + CCCCCCCC[P+](CC)(CC)CC.O=[N+]([O-])c1cn[n-]c1
x2 = 0
Conditions	mass density [kg/m3]
283.15 K	1385.6 ± 12
288.15 K	1381 ± 12
293.15 K	1376.5 ± 12
295.15 K	1374.6 ± 12
298.15 K	1371.9 ± 12
303.15 K	1367.3 ± 12
308.15 K	1362.8 ± 12
313.15 K	1358.3 ± 12
318.15 K	1353.7 ± 12
323.15 K	1349.2 ± 12
328.15 K	1344.7 ± 12
333.15 K	1340.3 ± 12
338.15 K	1335.8 ± 12
343.15 K	1331.4 ± 12
348.15 K	1326.9 ± 12
353.15 K	1322.5 ± 12

CCCCCCn1cc[n+](C)c1C.O=S(=O)([N-]S(=O)(=O)C(F)(F)F)C(F)(F)F + CCCCCCCC[P+](CC)(CC)CC.O=[N+]([O-])c1cn[n-]c1
x2 = 0
Conditions	mass density [kg/m3]
283.15 K	1373 ± 12
288.15 K	1368.4 ± 12
293.15 K	1363.9 ± 12
295.15 K	1362.1 ± 12
298.15 K	1359.5 ± 12
303.15 K	1355.1 ± 12
308.15 K	1350.8 ± 12
313.15 K	1346.4 ± 12
318.15 K	1342 ± 12
323.15 K	1337.6 ± 12
328.15 K	1333.2 ± 12
333.15 K	1328.9 ± 12
338.15 K	1324.5 ± 12
343.15 K	1320.2 ± 12
348.15 K	1315.8 ± 12
353.15 K	1311.5 ± 12

CC[P+](CC)(CC)COCCOC.O=S(=O)([N-]S(=O)(=O)C(F)(F)F)C(F)(F)F + CCCCCCC[P+](CC)(CC)CC.O=[N+]([O-])c1cn[n-]c1
x2 = 0
Conditions	viscosity [mPa·s]
278.15 K	84 ± 10
283.15 K	65 ± 8
288.15 K	51 ± 6

CCCCCCCCCCCCCC[P+](CCCCCC)(CCCCCC)CCCCCC.O=S(=O)([N-]S(=O)(=O)C(F)(F)F)C(F)(F)F + CCCCCC[n+]1ccn(C)c1.O=S(=O)([N-]S(=O)(=O)C(F)(F)F)C(F)(F)F
viscosity [mPa·s]
Conditions	278.15 K	283.15 K	288.15 K	293.15 K	298.15 K	303.15 K	308.15 K	313.15 K	318.15 K	323.15 K
x1 = 0.2	390 ± 49	280 ± 35	205 ± 25	153 ± 19	118 ± 14	92 ± 11	74 ± 9	60 ± 7	–	–
x1 = 0.398	652 ± 85	459 ± 59	329 ± 41	242 ± 30	183 ± 23	141 ± 17	111 ± 13	89 ± 11	72 ± 9	60 ± 7
x1 = 0.596	873 ± 120	611 ± 79	434 ± 55	316 ± 40	236 ± 29	180 ± 22	140 ± 17	111 ± 13	90 ± 11	73 ± 9
x1 = 0.748	1019 ± 140	706 ± 92	500 ± 64	362 ± 46	270 ± 34	204 ± 25	158 ± 19	124 ± 15	100 ± 12	81 ± 10
x1 = 0.903	1114 ± 150	774 ± 100	547 ± 70	396 ± 50	293 ± 37	221 ± 27	171 ± 21	134 ± 16	107 ± 13	86 ± 10

CCCC[n+]1cccn1C.O=S(=O)([N-]S(=O)(=O)C(F)(F)F)C(F)(F)F [1-butyl-2-methylpyrazolium bis(trifluoromethylsulfonyl)imide] + CCCCCCSC(N(C)C)=[N+](C)C.O=S(=O)([N-]S(=O)(=O)C(F)(F)F)C(F)(F)F
mass density [kg/m3]
Conditions	x2 = 0.251	x2 = 0.502	x2 = 0.748
283.15 K	1431.2 ± 12	1400.4 ± 12	1375.8 ± 12
288.15 K	1426.6 ± 12	1395.7 ± 12	1371.4 ± 12
293.15 K	1421.9 ± 12	1391.4 ± 12	1366.9 ± 12
295.15 K	1420.1 ± 12	1389.9 ± 12	1365.1 ± 12
298.15 K	1417.3 ± 12	1387.4 ± 12	1362.4 ± 12
303.15 K	1412.7 ± 12	1382 ± 12	1357.9 ± 12
308.15 K	1408.1 ± 12	1377.6 ± 12	1353.5 ± 12
313.15 K	1403.5 ± 12	1373.2 ± 12	1349 ± 12
318.15 K	1398.9 ± 12	1368.8 ± 12	1344.6 ± 12
323.15 K	1394.3 ± 12	1364.7 ± 12	1340.2 ± 12
328.15 K	1389.7 ± 12	1360.4 ± 12	1335.8 ± 12
333.15 K	1385.2 ± 12	1356 ± 12	1331.4 ± 12
338.15 K	1380.6 ± 12	1351.7 ± 12	1327 ± 12
343.15 K	1376.1 ± 12	1347.3 ± 12	1322.6 ± 12
348.15 K	1371.6 ± 12	1342.8 ± 12	1318.3 ± 12
353.15 K	1367.1 ± 12	1338.4 ± 12	1313.9 ± 12

CCCCCCn1cc[n+](C)c1C.O=[N+]([O-])c1cn[n-]c1 [1-hexyl-2,3-dimethylimidazolium 4-nitropyrazolide] + CCCCCCCC[P+](CC)(CC)CC.O=S(=O)([N-]S(=O)(=O)C(F)(F)F)C(F)(F)F
viscosity [mPa·s]
Conditions	278.15 K	283.15 K	288.15 K	293.15 K	298.15 K	303.15 K	308.15 K	313.15 K	318.15 K	323.15 K
x1 = 0.101	401 ± 51	284 ± 36	204 ± 25	151 ± 19	115 ± 14	90 ± 11	72 ± 9	57 ± 7	–	–
x1 = 0.299	620 ± 81	421 ± 54	293 ± 37	211 ± 26	156 ± 19	120 ± 15	93 ± 11	74 ± 9	60 ± 7	–
x1 = 0.499	992 ± 130	636 ± 83	423 ± 54	292 ± 37	209 ± 26	154 ± 19	118 ± 14	91 ± 11	72 ± 9	59 ± 7
x1 = 0.701	2252 ± 320	1345 ± 180	836 ± 110	543 ± 70	369 ± 47	259 ± 32	188 ± 23	140 ± 17	107 ± 13	84 ± 10
x1 = 0.899	6554 ± 990	3416 ± 500	1886 ± 260	1108 ± 150	689 ± 90	450 ± 58	307 ± 39	216 ± 27	157 ± 19	119 ± 15

CCCCCCn1cc[n+](C)c1.O=[N+]([O-])c1cn[n-]c1 [1-hexyl-3-methylimidazolium 4-nitropyrazolide] + CCCCCCCC[P+](CC)(CC)CC.O=S(=O)([N-]S(=O)(=O)C(F)(F)F)C(F)(F)F
viscosity [mPa·s]
Conditions	278.15 K	283.15 K	288.15 K	293.15 K	298.15 K	303.15 K	308.15 K	313.15 K	318.15 K	323.15 K
x1 = 0.1	402 ± 51	284 ± 36	205 ± 25	152 ± 19	116 ± 14	90 ± 11	72 ± 9	58 ± 7	–	–
x1 = 0.299	470 ± 60	325 ± 41	230 ± 29	168 ± 21	127 ± 16	98 ± 12	77 ± 9	62 ± 8	51 ± 6	–
x1 = 0.499	639 ± 83	428 ± 55	294 ± 37	209 ± 26	154 ± 19	116 ± 14	90 ± 11	71 ± 9	57 ± 7	–
x1 = 0.701	1045 ± 140	660 ± 86	432 ± 55	295 ± 37	209 ± 26	154 ± 19	116 ± 14	90 ± 11	71 ± 9	57 ± 7
x1 = 0.9	2181 ± 300	1262 ± 170	765 ± 100	488 ± 63	326 ± 41	227 ± 28	164 ± 20	122 ± 15	93 ± 11	74 ± 9

CCCCCCCCCC[P+](CC)(CC)CC.O=[N+]([O-])c1cn[n-]c1 [decyltriethylphosphonium 4-nitropyrazolide] + CC[P+](CC)(CC)COCCOC.O=S(=O)([N-]S(=O)(=O)C(F)(F)F)C(F)(F)F
viscosity [mPa·s]
Conditions	278.15 K	283.15 K	288.15 K	293.15 K	298.15 K	303.15 K	308.15 K	313.15 K	318.15 K	323.15 K
x1 = 0.1	103 ± 13	79 ± 10	62 ± 8	49 ± 6	–	–	–	–	–	–
x1 = 0.25	160 ± 20	120 ± 15	91 ± 11	72 ± 9	57 ± 7	–	–	–	–	–
x1 = 0.499	334 ± 42	239 ± 30	174 ± 21	131 ± 16	101 ± 12	79 ± 10	64 ± 8	52 ± 6	–	–
x1 = 0.75	716 ± 94	486 ± 62	337 ± 43	241 ± 30	178 ± 22	135 ± 16	104 ± 13	82 ± 10	66 ± 8	55 ± 7
x1 = 0.9	1198 ± 160	788 ± 100	531 ± 68	370 ± 47	265 ± 33	195 ± 24	149 ± 18	115 ± 14	91 ± 11	73 ± 9
